Patent US20020193383A1, “1-(N-phenylalkylaminoalkyl)piperazine derivatives substituted at position 2 of the phenyl ring” (Recordati S.A., Chemical and Pharmaceutical Comoany, priority 1997, published 2002)
pKi: −log10 of the molar value.

molecular target: T1, human 5-HT1A serotonergic receptor (Homo sapiens, UniProt P08908); test: Binding to recombinant human 5-HT1A receptors ([3H]8-OH-DPAT, HeLa cell membranes); conditions: read-out: Binding affinity for the 5-HT1A receptor, Ki
T1 construct: expressed in transfected cells; host or cells: HeLa (stably transfected)
T1 sequence (P08908 1-422): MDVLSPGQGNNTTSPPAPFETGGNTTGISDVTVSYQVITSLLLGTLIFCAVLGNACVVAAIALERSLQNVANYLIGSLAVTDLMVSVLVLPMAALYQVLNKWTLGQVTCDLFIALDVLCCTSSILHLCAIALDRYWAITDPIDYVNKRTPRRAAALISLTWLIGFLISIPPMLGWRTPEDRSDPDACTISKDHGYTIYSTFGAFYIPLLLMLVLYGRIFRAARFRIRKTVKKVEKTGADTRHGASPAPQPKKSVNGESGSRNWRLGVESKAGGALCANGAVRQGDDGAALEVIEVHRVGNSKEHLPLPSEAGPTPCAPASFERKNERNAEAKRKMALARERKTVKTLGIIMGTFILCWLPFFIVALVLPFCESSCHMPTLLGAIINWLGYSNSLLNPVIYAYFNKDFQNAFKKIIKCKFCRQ
Procedure: Genomic clone G-21 coding for the human 5-HT1A serotonergic receptor is stably transfected in a human cell line (HeLa). HeLa cells were grown as monolayers in Dulbecco's modified Eagle's medium (DMEM), supplemented with 10% fetal calf serum and gentamicin ([…]), 5% CO2 at 37° C. Cells were detached from the growth flask at 95% confluence by a cell scraper and were lysed in ice-cold 5 mM Tris and 5 mM EDTA buffer (pH 7.4). Homogenates were centrifuged at 40000×g×20 min and pellets were resuspended in a small volume of ice-cold 5 mM Tris and 5 mM EDTA buffer (pH 7.4) and immediately frozen and stored at −70° C. until use. On the day of experiment, cell membranes were resuspended in binding buffer: 50 mM Tris HCl (pH 7.4), 2.5 mM MgCl2, 10 μM pargiline (Fargin et al., Nature 335, 358-360, 1988). Membranes were incubated in a final volume of 1 ml for 30 min at 30° C. with 0.2-1 nM [3H]8-OH-DPAT, in absence or presence of competing drugs; non-specific binding was determined in the presence of 10 μM 5-HT. The incubation was stopped by addition of ice-cold Tris-HCl buffer and rapid filtration through 0.2% polyethyleneimine pretreated Whatman GF/B or Schleicher & Schuell GF52 filters.
The inhibition of specific binding of the radioligands by the tested drugs was analyzed to estimate the IC50 value by using the non-linear curve-fitting program Allfit (De Lean et al., Am. J. Physiol. 235, E97-E102, 1978). The IC50 value was converted to an affinity constant (Ki) by the equation of Cheng & Prusoff (Cheng, Y. C.; Prusoff, W. H. Biochem. Pharmacol. 22, 3099-3108, 1973).

pKi | SMILES
8.80 | COc1cc(O)ccc1N1CCN(CCN(C(=O)C2CCCCC2)c2ccccc2OC(F)(F)F)CC1 [Example 93, 1[N-cyclohexylcarbonyl-N-(2-trifluoromethoxyphenyl)-2-aminoethyl]-4-(4-hydroxy-2-methoxyphenyl)piperazine]
8.92 | COc1cc(OC(=O)C(C)C)ccc1N1CCN(CCN(C(=O)C2CCCCC2)c2ccccc2OC(F)(F)F)CC1 [Example 96, 1-[N-cyclohexylcarbonyl-N-(2-trifluoromethoxyphenyl)-2-aminoethyl]-4-[4-(2-methylpropionyloxy)-2-methoxyphenyl]piperazine]

SMILES | pKi
COc1cc(OC(C)=O)ccc1N1CCN(CCN(C(=O)C2CCCCC2)c2ccccc2OC(F)(F)F)CC1 [Example 94, 1-[N-cyclohexylcarbonyl-N-(2-trifluoromethoxyphenyl)-2-aminoethyl]-4-(4-acetoxy-2-methoxyphenyl)piperazine] | 8.67
